The values that follow come from the OligoGym collection.

Values joined by “and” are separate entries in the source; they are usually repeats but may differ in a detail not shown here. Equal values may be shown once. After the bases stand the sugars from the 5' end (letter, count) and the backbone: PS all phosphorothioate, else s phosphorothioate and o phosphodiester by linkage. Methylation of C is not given here. e = 2'-O-(2-methoxyethyl) (MOE); k = constrained ethyl (cEt); d = 2'-deoxy (DNA)

The series concerns the target IRF4. The settings on record: ASO.

In the case of TTACTAATTCCATAGA (sugars k3 d10 k3, PS), the target mRNA inhibition (MM.1R, 1 µM) stood at 3%.

For GTAAACGCAAGTCTGA (sugars k3 d10 k3, PS), the target mRNA inhibition (MM.1R, 1 µM) worked out at 14%. On the same count and under the same terms, in the case of “ACGGAAGTTTACACTG (sugars kkdddddddddkekek, PS)” it was 21%. Consider TTAAATAAGATCCCAC (sugars k3 d10 k3, PS), for which the target mRNA inhibition (SK-MEL-28, 4 µM) was determined as 23%.

Take ATAGAGCATCACTATT (sugars k3 d10 k3, PS): the target mRNA inhibition (MM.1R, 1 µM) was found to be 0%. As for GCCGATCATCAACTTC (sugars k3 d10 k3, PS), the target mRNA inhibition (MM.1R, 1 µM) turned out to be 26%.

Turning to CCGTATCCCCGTATCA (sugars k3 d10 k3, PS), where the note is “SK-MEL-28, 4 µM”, the target mRNA inhibition was determined as 35%. Turning to ACGCAAGTCTGAATTT (sugars k3 d10 k3, PS), the target mRNA inhibition (SK-MEL-28, 4 µM) was determined as 65%. In the case of “GGTTGGCTGGTCTTTG (sugars kddddddddddkekek, PS)”, the target mRNA inhibition (MM.1R, 1 µM) amounted to 47%.

With GTGGAACTCATAGGTG (sugars k3 d10 k3, PS), for the setting “SK-MEL-28, 4 µM”, the target mRNA inhibition amounted to 53%. Consider TCACAGAGCCAACTTA (sugars k3 d10 k3, PS), for which, where the note is “SK-MEL-28, 4 µM”, the target mRNA inhibition was -12%.

As to ATGGCGCATAGGTCCT (sugars k3 d10 k3, PS), the target mRNA inhibition (MM.1R, 1 µM) is -5%.

For GTCTAAACCAGCATAT (sugars k3 d10 k3, PS), where the note is “SK-MEL-28, 4 µM”, the target mRNA inhibition stood at 19%. “TGTGCTTGCCAAGCCT (sugars k2 d9 e3 k2, PS)”: the target mRNA inhibition (MM.1R, 1 µM) is 45% and 40%.

Take GTACACAAGACAAATC (sugars k3 d10 k3, PS): the target mRNA inhibition (SK-MEL-28, 4 µM) is 21%. “TACTGTTACCGATGCT (sugars kdddddddddkekeke, PS)”: the target mRNA inhibition (MM.1R, 1 µM) came to 18%. Turning to TTCAAGAGGAACTAGT (sugars k3 d10 k3, PS), the target mRNA inhibition (SK-MEL-28, 4 µM) stood at 6%. Still for that read-out and setting: to TATAGCACTCTCCTAT (sugars k3 d10 k3, PS) belongs 2%. Take GATCCTGAGAGTAAAC (sugars k3 d10 k3, PS): under “MM.1R, 1 µM”, the target mRNA inhibition was determined as 6%. Consider AACTCATAGGTGTACA (sugars k3 d10 k3, PS), for which the target mRNA inhibition (SK-MEL-28, 4 µM) came to 61%. The same measure, in the same setting: to CTGCAACTGGCTCACT (sugars k3 d10 k3, PS) belongs 10%. For the sequence “ACTGTTACCGATGCTT (sugars kdddddddddkekeke, PS)”, the target mRNA inhibition (MM.1R, 1 µM) is -2% and 17%. CATCGAGATCAGTCTC (sugars k3 d10 k3, PS): the target mRNA inhibition (SK-MEL-28, 4 µM) amounted to 65%. Consider GTATACTTAAGCAAGT (sugars k3 d10 k3, PS), for which, for the setting “SK-MEL-28, 4 µM”, the target mRNA inhibition was determined as 42%. Same read-out and setting: in the case of GAAAGAGCTGGTAGGT (sugars k3 d10 k3, PS) it was 0%.

CAGGAACTGACCTAAC (sugars k3 d10 k3, PS): where the note is “MM.1R, 1 µM”, the target mRNA inhibition is -7%.

Take TAGTGCTGTGCAGACC (sugars k3 d10 k3, PS): the target mRNA inhibition (SK-MEL-28, 4 µM) was 32%. In the case of “GGAAGTTTACACTGGA (sugars kkddddddddddkeke, PS)”, under “MM.1R, 1 µM”, the target mRNA inhibition turned out to be 46%. In the case of GCCATTCGAGGTGATT (sugars k3 d10 k3, PS), the target mRNA inhibition (SK-MEL-28, 4 µM) was 56%. In the case of GAACCTGCTGGGCTGG (sugars k3 d10 k3, PS), the target mRNA inhibition (SK-MEL-28, 4 µM) came out at 36%. For “TGTGATAGCTGAGCTG (sugars k2 d9 e3 k2, PS)”, the target mRNA inhibition (MM.1R, 1 µM) worked out at 12%. On the same count and under the same terms, in the case of TACAGGACAGGTAAAG (sugars k3 d10 k3, PS) it was -29%.

AAACACAGTCTGCTGC (sugars k3 d10 k3, PS): the target mRNA inhibition (SK-MEL-28, 4 µM) was 35%. With TTCTAGTCGCGCAAGT (sugars k3 d10 k3, PS), the target mRNA inhibition (MM.1R, 1 µM) was -7%. Turning to GGGCAATGGAGTCTCG (sugars k3 d10 k3, PS), the target mRNA inhibition (SK-MEL-28, 4 µM) came out at 24%. Take GTTAAGTACTTGGACA (sugars k3 d10 k3, PS): the target mRNA inhibition (SK-MEL-28, 4 µM) came out at 32%. Take “AGTTGTAAATGAGTCG (sugars kkdddddddddekeke, PS)”: the target mRNA inhibition is 17% (MM.1R, 0.074 µM); 44% (MM.1R, 0.222 µM); 67% (MM.1R, 0.666 µM); 73% (MM.1R, 1 µM); 86% (MM.1R, 2 µM). For the sequence GAGCAATGAACGGAAG (sugars k3 d10 k3, PS), the target mRNA inhibition (SK-MEL-28, 4 µM) came to 72%.

For the sequence TACGACAACTTTCCTG (sugars k3 d10 k3, PS), for the setting “SK-MEL-28, 4 µM”, the target mRNA inhibition is 41%. On the same count and under the same terms, in the case of TCCAGGTGGCTCAGCA (sugars k4 d8 k4, PS) it was 34%; in that of GCGACTAACTCTCCTG (sugars k3 d10 k3, PS), 70%; in that of GTATACCAACGACAGC (sugars k3 d10 k3, PS), 78%. As for CGGCACAGGCGCGGAC (sugars k3 d10 k3, PS), the target mRNA inhibition (SK-MEL-28, 4 µM) stood at 4%. ATAGTTAAGTACTTGG (sugars k3 d10 k3, PS): the target mRNA inhibition (SK-MEL-28, 4 µM) worked out at 48%. Same read-out and setting: to GTAAATATCCTGTAGT (sugars k3 d10 k3, PS) belongs 33%; to TAACAAGTTATCCAGT (sugars k3 d10 k3, PS), 12%; to GCGAAGGCTCCTACCC (sugars k3 d10 k3, PS), -15%. Regarding CCCCGAGCTGCACACG (sugars k3 d10 k3, PS), the target mRNA inhibition (MM.1R, 1 µM) was -5%.

Regarding GCACTGCATGAAAGTG (sugars k3 d10 k3, PS), under “SK-MEL-28, 4 µM”, the target mRNA inhibition amounted to 40%. As to ATAGGTATACTTAAGC (sugars k3 d10 k3, PS), the target mRNA inhibition (SK-MEL-28, 4 µM) was 80% and 79%. For TCAGTTACTCACGAGC (sugars k3 d10 k3, PS), the target mRNA inhibition (MM.1R, 1 µM) is -3%. In the case of TGGAGAAACGAGCCAG (sugars k3 d10 k3, PS), under “SK-MEL-28, 4 µM”, the target mRNA inhibition was 38%.

ATATTAGAGACTGTAT (sugars k3 d10 k3, PS): where the note is “SK-MEL-28, 4 µM”, the target mRNA inhibition is 25%.

Consider ATGGAAATACGACAAC (sugars k3 d10 k3, PS), for which, under “SK-MEL-28, 4 µM”, the target mRNA inhibition was 35%.

On to TTCAACACACTGTCTG (sugars k3 d10 k3, PS), for which the target mRNA inhibition (SK-MEL-28, 4 µM) is -31%.

Regarding CACTTTGTACGGGTCT (sugars k3 d10 k3, PS), the target mRNA inhibition (MM.1R, 1 µM) is 11%.

As to TCCTCTGGCCATTGTC (sugars k3 d10 k3, PS), under “SK-MEL-28, 4 µM”, the target mRNA inhibition was 41%. The same measure, in the same setting: to GACCTAACTAAATGTC (sugars k3 d10 k3, PS) belongs -18%; to ACAGAAGATCTCTACT (sugars k3 d10 k3, PS), 32%; to AGCATCCGCTTGGAGA (sugars k3 d10 k3, PS), 37%. On to TCATGTAAAGTCTGCT (sugars k3 d10 k3, PS), for which the target mRNA inhibition (MM.1R, 1 µM) worked out at 21%. Consider AGAAAGAAGCAAGTCG (sugars k3 d10 k3, PS), for which the target mRNA inhibition (SK-MEL-28, 4 µM) worked out at 37%. The same measure, in the same setting: to GTTTACTAACTGGCTT (sugars k3 d10 k3, PS) belongs 27%; to GCAGGTTTCATTTCAT (sugars k3 d10 k3, PS), 44%.

Turning to TGCTCACTAAGCTTGA (sugars k3 d10 k3, PS), for the setting “MM.1R, 1 µM”, the target mRNA inhibition turned out to be 12%. Take ACAGCATAGCATTATC (sugars k3 d10 k3, PS): the target mRNA inhibition (SK-MEL-28, 4 µM) stood at 64%. On to “GTTGGCTGGTCTTTGT (sugars kkdddddddddkekek, PS)”, for which the target mRNA inhibition (MM.1R, 1 µM) came to 62%.

As for TATGACCCAGTGCTCT (sugars k3 d10 k3, PS), the target mRNA inhibition (SK-MEL-28, 4 µM) worked out at 40%. On to GGCTAGGCCACCGCAC (sugars k3 d10 k3, PS), for which the target mRNA inhibition (SK-MEL-28, 4 µM) was 28%.

For GAGCACTGCATGAAAG (sugars k3 d10 k3, PS), under “SK-MEL-28, 4 µM”, the target mRNA inhibition came out at 51%. Turning to GGGCGACGACAGCTGC (sugars k3 d10 k3, PS), the target mRNA inhibition (SK-MEL-28, 4 µM) was 32%. Still for that read-out and setting: to GTAAACACATCACTTG (sugars k3 d10 k3, PS) belongs 51%. Take TGTGCTTGCCAAGCCT (sugars k3 d10 k3, PS): the target mRNA inhibition (MM.1R, 1 µM) was 38% and 49%. On the same count and under the same terms, to CTTTGGGCACCAAAAG (sugars k3 d10 k3, PS) belongs -33%. Regarding AGCTGATGGAGAAACG (sugars k3 d10 k3, PS), the target mRNA inhibition (SK-MEL-28, 4 µM) came to 10%.

Consider TGAACCCTTCATCAGA (sugars k3 d10 k3, PS), for which the target mRNA inhibition (SK-MEL-28, 4 µM) came to 48%. On the same count and under the same terms, in the case of TTTACACTGGATCTGA (sugars k3 d10 k3, PS) it was 25%.

On to CTGTGTAATGTAGGGA (sugars k3 d10 k3, PS), for which the target mRNA inhibition (SK-MEL-28, 4 µM) is 42%.

With TGGCCCTTCTCTCACG (sugars k3 d10 k3, PS), for the setting “SK-MEL-28, 4 µM”, the target mRNA inhibition is 11%. On to AGGCAGTTGTGCCGTC (sugars k3 d10 k3, PS), for which, for the setting “SK-MEL-28, 4 µM”, the target mRNA inhibition was -62%. On to CGATCATCAACTTCTT (sugars k3 d10 k3, PS), for which the target mRNA inhibition (MM.1R, 0.0625 µM) is 24% and 23%; the target mRNA inhibition (MM.1R, 0.25 µM) was 50%; the target mRNA inhibition (MM.1R, 1 µM) is 72% and 75%; the target mRNA inhibition (MM.1R, 4 µM) was 92% and 93%.

Turning to “TTATGTTAGCCAATTC (sugars k2 d9 e3 k2, PS)”, the target mRNA inhibition (MM.1R, 1 µM) is 14% and 9%.

For “ACACTTTTAGAGAGGA (sugars kkdddddddddkdkdk, PS)”, the target mRNA inhibition (MM.1R, 1 µM) was 3%. GAAGGGAACAGATAGT (sugars k3 d10 k3, PS): the target mRNA inhibition (SK-MEL-28, 4 µM) turned out to be 17%. For “AGCATTTTATCATCCG (sugars k3 d9 k3 e1, PS)”, the target mRNA inhibition came to 17% (MM.1R, 0.074 µM); 32% (MM.1R, 0.222 µM); 61% (MM.1R, 0.666 µM); 66% (MM.1R, 1 µM); 83% (MM.1R, 2 µM). For “GGAAGTTTACACTGGA (sugars k2 d9 e3 k2, PS)”, for the setting “MM.1R, 1 µM”, the target mRNA inhibition is 47%. As for CACTACCATATTGGAA (sugars k3 d10 k3, PS), the target mRNA inhibition (SK-MEL-28, 4 µM) stood at 22%. The same measure, in the same setting: to TTACCATTTTCACAAG (sugars k3 d10 k3, PS) belongs 8%; to GGTAATTTAGGCCAAT (sugars k3 d10 k3, PS), 35%.

Regarding CCGATGCTTCAAGACA (sugars k3 d10 k3, PS), the target mRNA inhibition (MM.1R, 1 µM) was found to be 13%.

Consider TTAAGCTAAACTCCTA (sugars k3 d10 k3, PS), for which the target mRNA inhibition (SK-MEL-28, 4 µM) was determined as 10%.
